Measured values as given in US10004711B2, “Methods and compositions comprising 10-hydroxy-2-decenoic acid” (DSM IP ASSETS B.V., priority 2014, dated 2018).

Experiment: Body weight of aged male rats fed QBA (Example 7)
Format: in vivo, rat
Method: Aged male rats were fed 10-Hydroxy-2-decenoic acid (QBA) for approximately 7 months from 11-months to 18-months of age and the weight of rats was recorded.

SMILES: O=C(O)C=CCCCCCCCO [QBA, 10-Hydroxy-2-decenoic acid]
- Avg Wt (QBA 4 mg/kg/day, study day 148): 588.0 g
- Avg Wt (QBA 4 mg/kg/day, study day 155): 587.8 g
- Avg Wt (QBA 4 mg/kg/day, study day 162): 589.5 g
- Avg Wt (QBA 4 mg/kg/day, study day 169): 594.0 g
- Avg Wt (QBA 4 mg/kg/day, study day 176): 601.7 g
- Avg Wt (QBA 4 mg/kg/day, study day 182): 588.0 g
- Avg Wt (QBA 4 mg/kg/day, study day 190): 597.8 g
- Avg Wt (QBA 4 mg/kg/day, study day 197): 597.7 g
- Avg Wt (QBA 4 mg/kg/day, study day 204): 601.8 g
- Avg Wt (QBA 4 mg/kg/day, study day 211): 596.6 g
- Avg Wt (QBA 4 mg/kg/day, study day 217): 595.9 g
- Avg Wt (QBA 12 mg/kg/day, study day 0): 508.7 g
- Avg Wt (QBA 12 mg/kg/day, study day 7): 508.8 g
- Avg Wt (QBA 12 mg/kg/day, study day 21): 508.0 g
- Avg Wt (QBA 12 mg/kg/day, study day 29): 490.2 g
- Avg Wt (QBA 12 mg/kg/day, study day 36): 511.7 g
- Avg Wt (QBA 12 mg/kg/day, study day 50): 554.3 g
- Avg Wt (QBA 12 mg/kg/day, study day 57): 551.4 g
- Avg Wt (QBA 12 mg/kg/day, study day 64): 567.6 g
- Avg Wt (QBA 12 mg/kg/day, study day 71): 574.1 g
- Avg Wt (QBA 12 mg/kg/day, study day 78): 573.1 g
- Avg Wt (QBA 12 mg/kg/day, study day 85): 574.6 g
- Avg Wt (QBA 12 mg/kg/day, study day 92): 581.2 g
- Avg Wt (QBA 12 mg/kg/day, study day 99): 584.5 g
- Avg Wt (QBA 12 mg/kg/day, study day 106): 591.2 g
- Avg Wt (QBA 12 mg/kg/day, study day 113): 591.2 g
- Avg Wt (QBA 12 mg/kg/day, study day 120): 586.1 g
- Avg Wt (QBA 12 mg/kg/day, study day 127): 593.3 g
- Avg Wt (QBA 12 mg/kg/day, study day 141): 595.8 g
- Avg Wt (QBA 12 mg/kg/day, study day 148): 592.9 g
- Avg Wt (QBA 12 mg/kg/day, study day 155): 591.1 g
- Avg Wt (QBA 12 mg/kg/day, study day 162): 580.5 g
- Avg Wt (QBA 12 mg/kg/day, study day 169): 588.2 g
- Avg Wt (QBA 12 mg/kg/day, study day 176): 593.0 g
- Avg Wt (QBA 12 mg/kg/day, study day 182): 590.6 g
- Avg Wt (QBA 12 mg/kg/day, study day 190): 599.5 g
- Avg Wt (QBA 12 mg/kg/day, study day 197): 600.8 g
- Avg Wt (QBA 12 mg/kg/day, study day 204): 595.5 g
- Avg Wt (QBA 12 mg/kg/day, study day 211): 599.6 g
- Avg Wt (QBA 12 mg/kg/day, study day 217): 593.7 g
- Avg Wt (QBA 24 mg/kg/day, study day 0): 516.8 g
- Avg Wt (QBA 24 mg/kg/day, study day 7): 510.9 g
- Avg Wt (QBA 24 mg/kg/day, study day 21): 530.8 g
- Avg Wt (QBA 24 mg/kg/day, study day 29): 512.3 g
- Avg Wt (QBA 24 mg/kg/day, study day 36): 546.4 g
- Avg Wt (QBA 24 mg/kg/day, study day 50): 574.6 g
- Avg Wt (QBA 24 mg/kg/day, study day 57): 586.8 g
- Avg Wt (QBA 24 mg/kg/day, study day 64): 594.2 g
- Avg Wt (QBA 24 mg/kg/day, study day 71): 598.5 g
- Avg Wt (QBA 24 mg/kg/day, study day 78): 600.7 g
- Avg Wt (QBA 24 mg/kg/day, study day 85): 608.8 g
- Avg Wt (QBA 24 mg/kg/day, study day 92): 614.9 g
- Avg Wt (QBA 24 mg/kg/day, study day 99): 618.1 g
- Avg Wt (QBA 24 mg/kg/day, study day 106): 626.7 g
- Avg Wt (QBA 24 mg/kg/day, study day 113): 628.4 g
- Avg Wt (QBA 24 mg/kg/day, study day 120): 628.6 g
- Avg Wt (QBA 24 mg/kg/day, study day 127): 630.3 g
- Avg Wt (QBA 24 mg/kg/day, study day 141): 632.0 g
- Avg Wt (QBA 24 mg/kg/day, study day 148): 635.4 g
- Avg Wt (QBA 24 mg/kg/day, study day 155): 636.3 g
- Avg Wt (QBA 24 mg/kg/day, study day 162): 637.3 g
- Avg Wt (QBA 24 mg/kg/day, study day 169): 628.4 g
- Avg Wt (QBA 24 mg/kg/day, study day 176): 643.9 g
- Avg Wt (QBA 24 mg/kg/day, study day 182): 646.0 g
- Avg Wt (QBA 24 mg/kg/day, study day 190): 649.5 g
- Avg Wt (QBA 24 mg/kg/day, study day 197): 653.3 g
- Avg Wt (QBA 24 mg/kg/day, study day 204): 644.4 g
- Avg Wt (QBA 24 mg/kg/day, study day 211): 647.8 g
- Avg Wt (QBA 24 mg/kg/day, study day 217): 650.6 g
- body weight versus control, repeated measures ANOVA (all doses versus 0 mg/kg/day QBA): small but significant increase
- body weight maintenance in aging male rats (summary of Table 13): helped to maintain healthy body weight
